Assay results as given in US9371295B2, “Compounds for use in the treatment of disorders that are ameliorated by inhibition of HDAC” (IRBM—Science Park S.p.A., priority 2012, dated 2016).

Key:
[1] = test system: human γ-globin promoter (EGFP reporter) in K562 cells; assay: HbF activation assay on K562 (EGFP/RFP reporter model system for screening of inducers of fetal hemoglobin); assay type: cell-based; conditions: 60 hours
Excerpt: In order to test several compounds, a model system was produced based on previous findings present in the literature. The K562 erythroid-like cell lines, isolated and characterized by Lozzio & Lozzio (Blood, 45(3), pp 321-334) from a patient with chronic myelogenous leukemia in blast crisis, have been extensively employed as a useful in vitro model to study the molecular mechanism(s) regulating the expression of embryonic and fetal human globin genes, as well as for screening of new differentiation-inducing compounds. A stable cell line where reporter genes encoding green EGFP and far-red fluorescent protein red-FP are placed under the control of the human γ-globin or β-globin promoters respectively was used (see Vadolas et al, Hum. Mol. Genet. 2004, 13, 2, 223-233 for details). The modified 3-cluster also contains the upstream regulatory region called LCR. This cell line grows in suspension at 37° C. and 5% CO2 in humidified atmosphere in the following medium: DMEM, 10% foetal bovine serum, glutamine and antibiotics (penicillin and streptomycin);
The assay procedures is as follows: • Single concentration compounds or serially diluted samples are transferred to an empty assay plates by a spotter (ATS-100, EDC Biosystems, USA) in order to have a final concentration of DMSO of 0.25% in 50 μL of cell culture. Source plats contains compounds dissolved in 100% DMSO • Black, transparent bottom, 384 wells, tissue culture treated plates are used as assay plates. • Assay plates containing spotted compounds are filled with a suspension of cell in the described assay medium. The final cell concentration is of 1000 cells per well. • Cells are incubated in humidified atmosphere, 37° C.-5% CO2, for 60 hours • Cell nuclei are stained by adding 10 ul (6 μM; 1 μM final) Hoechst 33342 (Life Technologies, USA) • The cell associated intensity is read by a plate based cytometer (ACUMEN explorer, TTP Labtech, UK) • The nuclei count is used to assess the cell proliferation/death and to normalize the total EGFP/RFP intensity. HbF Activation Assay in Human Cell Line K562
The compounds of the invention were tested in the HbF activation assay on K562, as model system for screening of potential inducers of fetal hemoglobin.

HDAC1 = target: T1, HDAC1 (Homo sapiens, UniProt Q13547); assay: HDAC1 assay (Fluor-de-Lys fluorescent deacetylase assay); assay type: biochemical; conditions: read-out: hHDAC IC50
T1 construct: made in house
T1 sequence (Q13547 whole entry): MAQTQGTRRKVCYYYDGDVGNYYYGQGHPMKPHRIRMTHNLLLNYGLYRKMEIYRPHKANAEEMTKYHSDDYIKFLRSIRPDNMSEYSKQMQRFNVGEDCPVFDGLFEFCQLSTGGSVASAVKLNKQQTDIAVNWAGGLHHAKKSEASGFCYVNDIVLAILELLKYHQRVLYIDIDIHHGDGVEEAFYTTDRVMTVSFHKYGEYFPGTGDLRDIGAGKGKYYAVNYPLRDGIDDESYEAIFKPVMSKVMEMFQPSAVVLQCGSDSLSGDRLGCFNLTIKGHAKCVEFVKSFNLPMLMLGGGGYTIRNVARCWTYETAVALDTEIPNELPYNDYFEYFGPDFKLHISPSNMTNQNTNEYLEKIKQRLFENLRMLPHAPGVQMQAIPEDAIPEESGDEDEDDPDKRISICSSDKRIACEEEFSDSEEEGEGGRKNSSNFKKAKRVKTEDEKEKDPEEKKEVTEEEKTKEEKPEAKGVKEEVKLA
Procedure: The HDAC1 assay is used to quantify the histone deacetylase (HDAC) activity. The assay is performed in 384 well microtiter plates by pre-incubating serial dilutions of the compounds with a fixed concentration of HeLa nuclear extract or purified HDAC1 and then adding an acetylated lysine-containing substrate/developer that fluoresces upon deacetylation.
Reagents of the HDAC Fluorescent Activity Assay are purchased from BioMol Research Laboratories (Plymouth Meeting, Pa.) and feature the Fluor-de-Lys™ Substrate/Developer System.
TSA Stock: TSA is provided as a 10 mM stock solution in 100% dimethylsulfoxide (DMSO). […] The final concentration in the assay is 20 uM.
3 uM [final] TSA to this solution increases its ability to stop the reaction.
HDAC1 Working Solution: The HDAC1 enzyme is diluted in assay buffer prior to each use from a fresh aliquot of enzyme. The final concentration in the assay is 1-2 nM.
Compounds: Test compounds are directly transferred from a 100% DMSO solution into assay plates by spotting nanoliters of solutions by an acoustic dispenser (ATS-100, EDC biosystems, US).
HeLa cells transiently transfected with pCDNA3-HDAC1-FLAG are grown to 80% confluence on 10 cm culture dishes in DMEM, 10% Fetal bovine serum supplemented with antibiotics and glutamine. Cells are washed with 10 ml cold PBS and scraped into 2 ml of PBS. Cells are centrifuged for 5 minutes at 800×g at 4° C., washed with 30 ml PBS and resuspended in 10 ml PBS, counted, re-centrifuged and frozen at −80° C.
The frozen cell pellet is re-suspended in 1 ml of hypotonic lysis buffer (LB: 20 mM Hepes pH7.9, 0.25 mM EDTA, 10% glycerol) containing COMPLETE protease inhibitor and incubated on ice for 15 minutes, followed by homogenization on a 2-ml DounceB homogenizer (25 strokes). 150 mM KCl and 0.5% NP-40 are added to the homogenate and the solution is sonicated twice for 30 seconds (output5/6, duty cycle 90) and incubated for 1 hour at 4° C. After a 30 minutes centrifugation at 12000 rpm and 4° C. the supernatant (soluble extract) is collected and protein concentration is determined using the BIORAD assay.
Anti-FLAG M2 affinity resin (Sigma) is washed three times with TBS and twice with LB. 10 μl of the LB-washed resin/mg of protein (2-3 ug of Flagged-HDAC1) are added to the soluble extract (1 mL) and incubated overnight at 4° C. with gentle mixing. The resin is then collected by centrifugation, washed once with LB, twice with LB+0.1% NP40 and twice with elution buffer (50 mM Hepes pH 7.4, 5% glycerol, 100 mM KCl, 0.01% Triton X-100).
The concentration of purified HDAC is determined by Western blot analysis.

HDAC in Hela cells = assay: HDAC Hela Cell Based assay

Row | SMILES | EC50 [1] | IC50 (HDAC1) | IC50 (HDAC in Hela cells)
1 | CCC(=O)CCCCC[C@H](NC(=O)CCN(C)C)c1nnc(-c2cc3ccccc3nc2OC)o1 [Compound 51, (S)-3-(dimethylamino)-N-(1-(5-(2-methoxyquinolin-3-yl)-1,3,4-oxadiazol-2-yl)-7-oxononyl)propanamide] | > 1000 nM | < 100 nM | 100 to 1000 nM
2 | CCC(=O)CCCCC[C@H](NC(=O)C(=O)N1CCN(C)CC1)c1nnc(-c2cc3ccccc3nc2OC)o1 [Compound 46, (S)-N-(1-(5-(2-methoxyquinolin-3-yl)-1,3,4-oxadiazol-2-yl)-7-oxononyl)-2-(4-methylpiperazin-1-yl)-2-oxoacetamide] | > 1000 nM | < 100 nM | 100 to 1000 nM
3 | CCC(=O)CCCCC[C@H](NC(=O)Cc1c(C)[nH]c2ccc(OC)cc12)c1ncc(-c2cc3ccccc3nc2OC)o1 [Compound 1, (S)-2-(5-methoxy-2-methyl-1H-indol-3-yl)-N-(1-(5-(2-methoxyquinolin-3-yl)oxazol-2-yl)-7-oxononyl)acetamide] | > 1000 nM | < 100 nM | 100 to 1000 nM
4 | CCC(=O)CCCCC[C@H](NC(=O)Cn1ccc(C)n1)c1ncc(-c2cc3ccccc3nc2OC)o1 [Compound 78, (S)-N-(1-(5-(2-methoxyquinolin-3-yl)oxazol-2-yl)-7-oxononyl)-2-(3-methyl-1H-pyrazol-1-yl)acetamide] | > 1000 nM | < 100 nM | 100 to 1000 nM
5 | CCC(=O)CCCCC[C@H](NC(=O)c1snnc1C)c1ncc(-c2cc3ccccc3nc2OC)o1 [Compound 101, (S)-N-(1-(5-(2-methoxyquinolin-3-yl)oxazol-2-yl)-7-oxononyl)-4-methyl-1,2,3-thiadiazole-5-carboxamide] | > 1000 nM | < 100 nM | 100 to 1000 nM
6 | CCC(=O)CCCCC[C@H](NC(=O)[C@@H]1CC(F)(F)CN1)c1ncc(-c2cc3ccccc3nc2OC)o1 [Compound 60, (S)-4,4-difluoro-N-((S)-1-(5-(2-methoxyquinolin-3-yl)oxazol-2-yl)-7-oxononyl)pyrrolidine-2-carboxamide] | > 1000 nM | < 100 nM | > 1000 nM
7 | CCC(=O)CCCCC[C@H](NC(=O)CN1CCN(C)CC1)c1ncc(-c2ccccc2)o1 [Compound 15, (S)-2-(4-methylpiperazin-1-yl)-N-(7-oxo-1-(5-phenyloxazol-2-yl)nonyl)acetamide] | > 1000 nM | 100 to 1000 nM | > 1000 nM
8 | CCC(=O)CCCCC[C@H](NC(=O)Cn1cncn1)c1ncc(-c2cc3ccccc3nc2OC)o1 [Compound 86, (S)-N-(1-(5-(2-methoxyquinolin-3-yl)oxazol-2-yl)-7-oxononyl)-2-(1H-1,2,4-triazol-1-yl)acetamide] | > 1000 nM | < 100 nM | 100 to 1000 nM
9 | CCC(=O)CCCCC[C@H](NC(=O)Cn1cc2ccccc2n1)c1ncc(-c2cc3ccccc3nc2OC)o1 [Compound 88, (S)-2-(2H-indazol-2-yl)-N-(1-(5-(2-methoxyquinolin-3-yl)oxazol-2-yl)-7-oxononyl)acetamide] | > 1000 nM | < 100 nM | 100 to 1000 nM
10 | CCC(=O)CCCCC[C@H](NC(=O)c1ccnc(Cl)c1)c1ncc(-c2ccccc2)o1 [Compound 14, (S)-2-chloro-N-(7-oxo-1-(5-phenyloxazol-2-yl)nonyl)isonicotinamide] | > 1000 nM | 100 to 1000 nM | > 1000 nM
11 | CCC(=O)CCCCC[C@H](NC(=O)c1csc(CN(C)C)n1)c1ncc(-c2cc3ccccc3nc2OC)o1 [Compound 103, (S)-2-((dimethylamino)methyl)-N-(1-(5-(2-methoxyquinolin-3-yl)oxazol-2-yl)-7-oxononyl)thiazole-4-carboxamide] | > 1000 nM | 100 to 1000 nM | 100 to 1000 nM
12 | CCC(=O)CCCCC[C@H](NC(=O)Cc1c[nH]cn1)c1ncc(-c2cc3ccccc3nc2OC)o1 [Compound 73, (S)-2-(1H-imidazol-4-yl)-N-(1-(5-(2-methoxyquinolin-3-yl)oxazol-2-yl)-7-oxononyl)acetamide] | > 1000 nM | < 100 nM | 100 to 1000 nM
13 | CCC(=O)CCCCC[C@H](NC(=O)CCN(C)C)c1ncc(-c2ccccc2)o1 [Compound 7, (S)-3-(dimethylamino)-N-(7-oxo-1-(5-phenyloxazol-2-yl)nonyl)propanamide] | > 1000 nM | < 100 nM | > 1000 nM
14 | CCC(=O)CCCCC[C@H](NC(=O)C(=O)N1CCOCC1)c1ncc(-c2cc3ccccc3nc2OC)o1 [Compound 69, (S)-N-(1-(5-(2-methoxyquinolin-3-yl)oxazol-2-yl)-7-oxononyl)-2-morpholino-2-oxoacetamide] | > 1000 nM | < 100 nM | 100 to 1000 nM

Continued, values first:

Row | EC50 [1] | IC50 (HDAC1) | IC50 (HDAC in Hela cells) | SMILES
15 | 100 to 1000 nM | < 100 nM | 100 to 1000 nM | CCC(=O)CCCCC[C@H](NC(=O)c1cccnc1)c1ncc(-c2cc3ccccc3nc2OC)o1 [Compound 91, (S)-N-(1-(5-(2-methoxyquinolin-3-yl)oxazol-2-yl)-7-oxononyl)nicotinamide]
16 | 100 to 1000 nM | < 100 nM | 100 to 1000 nM | CCC(=O)CCCCC[C@H](NC(=O)C1CNC(=O)C1)c1ncc(-c2cc3ccccc3nc2OC)o1 (stereo partly drawn) [Compound 72, N-((S)-1-(5-(2-methoxyquinolin-3-yl)oxazol-2-yl)-7-oxononyl)-5-oxopyrrolidine-3-carboxamide]
17 | 100 to 1000 nM | < 100 nM | 100 to 1000 nM | CCC(=O)CCCCC[C@H](NC(=O)C1(C)CN(C)C1)c1ncc(-c2cc3ccccc3nc2OC)o1 [Compound 84, (S)-N-(1-(5-(2-methoxyquinolin-3-yl)oxazol-2-yl)-7-oxononyl)-1,3-dimethylazetidine-3-carboxamide]
18 | 100 to 1000 nM | < 100 nM | < 100 nM | CCC(=O)CCCCC[C@H](NC(=O)CC1CN(C)C1)c1ncc(-c2cc3ccccc3nc2OC)o1 [Compound 108, (S)-N-(1-(5-(2-methoxyquinolin-3-yl)oxazol-2-yl)-7-oxononyl)-2-(1-methylazetidin-3-yl)acetamide]
19 | 100 to 1000 nM | < 100 nM | 100 to 1000 nM | CCC(=O)CCCCC[C@H](NC(=O)C1CCN(C)CC1)c1nnc(-c2cc3ccccc3nc2OC)o1 [Compound 47, (S)-N-(1-(5-(2-methoxyquinolin-3-yl)-1,3,4-oxadiazol-2-yl)-7-oxononyl)-1-methylpiperidine-4-carboxamide]
20 | 100 to 1000 nM | < 100 nM | 100 to 1000 nM | CCC(=O)CCCCC[C@H](NC(=O)CCn1ccnc1)c1ncc(-c2cc3ccccc3nc2OC)o1 [Compound 75, (S)-3-(1H-imidazol-1-yl)-N-(1-(5-(2-methoxyquinolin-3-yl)oxazol-2-yl)-7-oxononyl)propanamide]
